What was measured:
[1] = Free flow preservation (caking) of OPA formulations on exposure to temperature and humidity; format: physicochemical; details: for Caking tendency: 0 wt. % of anti-caking agent; for Time to caking: untreated
Description: Samples of OPA containing 0.01-0.1% water were ground and mixed with various additives at levels of 0.2% to 5%. The samples were mixed on high-speed rollers for one hour followed by exposure to various temperatures and levels of humidity. The samples were examined at various time intervals for flow properties. Complete caking was defined as all sample stuck together in one solid block. For ease of interpretation and comparison, the following notation was used: 1) Formulations that caked in under two weeks were assigned one star (*); 2). Formulations that caked in two to four weeks were assigned two stars; 3) Formulations that caked in four to eight weeks were assigned three stars; 4) Formulations stable (flowable) over eight weeks were assigned four stars.

[2] = Flowability of OPA after one hour on high-speed rollers; format: physicochemical; details: granular OPA in capped 100 ml jar, no additive
Method: Ortho-phthalic aldehyde (13.04 g, granular) was placed in a 100 ml jar. The jar was tightly capped and placed on high-speed rollers for one hour. […] The lid was removed and the sample was placed in a humidity oven set at 40° C. and 90% RH (relative humidity). After 4 hours of exposure the sample had no flow.
Ortho-phthalic aldehyde (10.04 g, granular) was placed in a 100 ml jar. The jar was tightly capped and placed on high-speed rollers for one hour. […] The lid was removed and the sample was placed in a humidity oven set at 30° C. and 90% RH (relative humidity).
Ortho-phthalic addehyde (12.04 g, granular) was placed in a 100 ml jar. The jar was tightly capped and placed on high-speed rollers for one hour. […] The lid was removed and the sample was placed in a humidity oven set at 40° C. and 70% RH (relative humidity).

O=Cc1ccccc1C=O [Control, ortho-phthalic aldehyde]
Caking tendency ([1]; 22.5° C. and 65% RH): * (Formulations that caked in under two weeks were assigned one star (*))
Caking tendency ([1]; 30° C. and 90% RH): * (Formulations that caked in under two weeks were assigned one star (*))
Time to caking ([1]; 30° C. and 90% RH): one day
Caking tendency ([1]; 40° C. and 70% RH): * (Formulations that caked in under two weeks were assigned one star (*))
Caking tendency ([1]; 40° C. and 90% RH): * (Formulations that caked in under two weeks were assigned one star (*))
Time to caking ([1]; 40° C. and 90% RH): half a day
Flow after exposure ([1]; 4 hours at 40° C. and 70% RH): no free flow
Flow after exposure ([1]; 4 hours at 40° C. and 90% RH): no flow
Flow after exposure ([1]; 24 hours at 30° C. and 90% RH): no free flow
Flowability after one hour on high-speed rollers [2]: very poor flowability

From patent publication US20040109897A1, “Free flowing solid antimicrobial composition” (priority 2002, published 2004)
